Assays:
[1] = target: CD137 (Homo sapiens, UniProt Q07011); conditions: several clinical trials, Ascierto et al., 2010; cited from earlier work
[2] = tested on: immune cells; experiment: Click alginate cryogel with cytokines/chemokines placed under the skin, screened for immune cell accumulation; type: in vivo; conditions: Cryoclick gels
Description: FIG. 12 is a series of photographs showing immune cell accumulation using GM-CSF—DC growth/differentiation factor in the device. FIGS. 12-15 show data using Cryoclick gels. Using a click alginate cryogel, a number of cytokines and chemokines were placed under the skin and screened for resulting activity in terms of immune cell accumulation.

[3] = tested on: human lung cancer and breast cancer; conditions: PNAS 2012 109 (24) 9623-9628; cited from earlier work
[4] = tested on: human embryonic kidney (HEK) toll-like receptor-3 (TLR3) cells; experiment: Bioactivity of poly I:C released from CryogelMA on HEK TLR3 cells; type: cell-based; conditions: in vitro, supernatants over several days, absorbance
Description: FIG. 8 is a line graph showing CryogelMA poly I:C release and bioactivity. […] Doing this in the tumor microenvironment stimulates maturation of recruited antigen-presenting cells (APCs) and results in antitumor immunity.

[5] = tested on: tumor cells

Sequence of CD137 (Q07011 24-255): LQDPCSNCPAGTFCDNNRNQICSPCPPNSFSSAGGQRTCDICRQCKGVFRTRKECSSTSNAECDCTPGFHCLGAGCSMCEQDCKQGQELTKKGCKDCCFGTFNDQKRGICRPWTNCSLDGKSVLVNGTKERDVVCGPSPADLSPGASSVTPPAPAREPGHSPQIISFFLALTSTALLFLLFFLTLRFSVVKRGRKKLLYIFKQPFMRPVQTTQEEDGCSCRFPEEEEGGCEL

Compound: BMS-66513: anti-CD137 antibody
- clinical response [1]: partial remissions in disease
- clinical toxicity [1]: liver toxicity

Compound: IL-15: interleukin-15, T cell/NK cell survival factor
- immune cell accumulation at gel placed under the skin [2]: accumulation of CD4 and CD8 T cells in the skin

Compound: CN(CC(=O)N(Cc1ccc(C2CCCCC2)cc1)c1ccc(C(=O)O)c(O)c1)S(=O)(=O)c1c(F)c(F)c(F)c(F)c1F [BP-1-102]
- activity against tumors in animals [3]: active

Compound: polyinosine-polycytidylic acid [poly I:C]
- response of HEK TLR3 cells to supernatants [4]: produce a response measured by absorbance

Compound: COc1cccc2c1C(=O)c1c(O)c3c(c(O)c1C2=O)C[C@@](O)(C(=O)CO)C[C@@H]3O[C@H]1C[C@H](N)[C@H](O)[C@H](C)O1 [doxorubicin]
- cell death at the tumor close to the scaffold border ([5]; day 3 after peritumoral injection, cleaved-caspase 3 staining): local cell death is induced
- effect on surrounding normal tissue ([5]; local delivery from the gels, FIG. 22): much less affected

Compound: CCL20: Chemokine (C-C motif) ligand 20, DC chemokine
- immune cell accumulation at gel placed under the skin [2]: bright DC staining at gel periphery

From patent publication US11786457B2, “Peritumoral and intratumoral materials for cancer therapy” (President and Fellows of Harvard College, priority 2015, dated 2023)
